Results as given in patent US12037415B2, “Peptide and pharmaceutical composition for treating an eye disease comprising the same as an active pharmaceutical ingredient” (YuYu Pharma, Inc., priority 2017, dated 2024).
Starred links: 1 amine or outer side, 2 acyl side, 3 side chain; linkers in the order of their positions; H or OH if unused. Non-standard residues stand in square brackets, D forms with d. Residues, ends and D or L forms follow the SMILES beside them. ξ: configuration not given here. cisHyp = O=C(O)[C@@H]1C[C@H](O)CN1; X1 = O=C([C@H](CCCCO)N[*:1])[*:2]; Hyp = O=C(O)[C@@H]1C[C@@H](O)CN1; Ile(3ξ) = CCC(C)[C@H](N)C(=O)O; Thr(3ξ) = CC(O)[C@H](N)C(=O)O; pGlu = O=C1CC[C@@H](C(=O)O)N1; hSer = N[C@@H](CCO)C(=O)O

How the values were obtained:
[1] = tested on: rats with dry eye syndrome (extraorbital lacrimal gland excision, ELGE); test: Amount of tear secretion (Schirmer test, cobalt chloride paper) in rats with ELGE-induced dry eye syndrome; format: in vivo, rat; conditions: 0.3% solution (DS 3%), administration for 14 days
Excerpt: (§1) In order to evaluate the eye protection effect on dry eye syndrome by YDE-001 to YDE-028 prepared in Working Example 1, a total of 320 Sprague-Dawley-type male rats (OrientBio, Seungnam, Korea) were adapted for 7 days. Thereafter, dry eye syndrome was induced in 264 test rats through extraorbital lacrimal gland excision (hereinafter, ELGE). 8 test rats without the eye abnormality were subjected to a sham operation as a control group.
(§2) The rats were systemically anesthetized by inhaling a mixed gas of 2% to 3% of isoflurane (Hana Pharm. Co., Hwasung, Korea), 70% of N2O, and 28.6% of O2 using a rodent anesthesia machine (Surgivet, Waukesha, Wis., USA) and a ventilator (Model 687, Harvard Apparatus, Cambridge, UK). Thereafter, the extraorbital lacrimal gland located in the subdermal area above the masseter muscle and under the optic nerve was excised through a transverse incision in a size of 10 mm on the anterior part of the left ear tragus. The skin was sutured by a general method. […] After 6 days following the ELGE operation, confirmation was performed through the Schirmer test by measuring the amount of tear secretion whether dry eye syndrome had been induced. Meanwhile, each rat of the control group with the sham operation was checked for the presence and location of the extraorbital lacrimal gland through a skin incision, and the skin was then sutured without the excision thereof (FIG. 134).
(§3) In addition, in order to evaluate the eye protection effect on dry eye syndrome by YDE-029 to YDE-043 prepared in Working Example 1, a total of 200 Sprague-Dawley-type male rats (OrientBio, Seungnam, Korea) were adapted for 7 days. Dry eye syndrome was induced in 165 test rats through the ELGE. 8 test rats without the eye abnormality were subjected to the sham operation as a control group. The ELGE was carried out as described above.
(§4) For YDE-001 to YDE-028, YY-102 and the 28 YDE-series were each dissolved in physiological saline at a concentration of 3 mg/ml and administered at a dose of 5 μl/eye at 9:30 am and 3:30 pm daily for 14 days after 7 days from the ELGE operation for a total of 28 times. The DS solution was dissolved in physiological saline at a concentration of 30 mg/ml and administered at a dose of 5 μl/eye twice a day for 14 days after 7 days from the ELGE operation for a total of 28 times. For the sham control and the ELGE control groups, the same stimulation as the administration was applied. In order to prevent excessive eye dryness, the same volume of physiological saline was applied in the same manner in place of the test substances.
as §4, with “Further, For YDE-029” for “For YDE-001”, “Further, For YDE-029 to YDE-043,” for “For YDE-001 to YDE-028,”, “YDE-029 to YDE-043, YY-102 and” for “YDE-001 to YDE-028, YY-102 and”, “and the 15 YDE-series were” for “and the 28 YDE-series were”, “the test substances (FIG. 137).” for “the test substances.”
After 6 days from the ELGE surgery, the changes in the amount of tear secretion were measured at day 7 and day 14 after the administration of YDE-001 to YDE-043. The amount of tear secretion was measured by the […] travel distance of tears absorbed by cobalt chloride paper in a size of 1×15 mm (Toyo Roshi Kaisha, Japan).
The cobalt chloride paper was placed in the lateral canthus of a rat for 60 seconds to absorb tears (FIG. 139). The length of the area absorbed from the corner of the cobalt chloride paper was measured with an electronic digital caliper (Mytutoyo, Tokyo, Japan) (FIG. 138).

[2] = tested on: cornea of rats with dry eye syndrome (ELGE); test: Corneal permeability of fluorescent dye (corneal damage) in rats with ELGE-induced dry eye syndrome; format: in vivo, rat; conditions: 0.3% solution, day 14 after the administration
Excerpt: as §1, §2, §3, §4
as §4, with “Further, For YDE-029” for “For YDE-001”, “Further, For YDE-029 to YDE-043,” for “For YDE-001 to YDE-028,”, “YDE-029 to YDE-043, YY-102 and” for “YDE-001 to YDE-028, YY-102 and”, “and the 15 YDE-series were” for “and the 28 YDE-series were”, “the test substances (FIG. 137).” for “the test substances.”
After YDE-001 to YDE-028 were each administered to the eyes […], the changes in the corneal permeability were checked.
In order to measure the corneal permeability, Zolethyl 50™ (Virbac Lab., Carros, France), an animal anesthetic, was intraperitoneally injected at a dose of 25 mg/kg. Thereafter, saline containing a 1% (v/v) fluorescent solution (fluorescein sodium salt, Tokyo Kasei Kogyo Co., Tokyo, Japan) was applied to the eyes at a dose of 5 μl/eye. The eyes thus treated were closed and fixed with a tape. After 1 hour, the remaining fluorescent solution was removed using a cotton swab (FIG. 142). […]

[3] = Stability in aqueous solution, amount of related substances under long-term storage conditions; format: physicochemical; conditions: glass vial, 25° C., 75% RH
Description: In order to confirm the stability of each test substance in an aqueous solution, […] of each sample was dissolved in 1 ml of water to a concentration of 1 mg/ml, which was then charged to a glass vial, plugged with a rubber cap, sealed with an aluminum cap, and stored under long-term storage conditions (25° C., 75% RH). The stability of the test substance was evaluated by measuring the amount of related substances at the time of one week, two weeks, four weeks, eight weeks, and twelve weeks under the long-term storage conditions.

[4] = study of YDE-001 to YDE-028 (Table 16)
[5] = study of YDE-029 to YDE-043 (Table 17)

| Amount of related substances (%; after 12 weeks) [3] | SMILES | Amount of tear secretion as compared with the ELGE control group ([1]; study of YDE-001 to YDE-028) | Amount of tear secretion as compared with the ELGE control group ([1]; study of YDE-029 to YDE-043) | Permeability of fluorescent dye (%) [2, 4] | Permeability of fluorescent dye (%) [2, 5] |
| --- | --- | --- | --- | --- | --- |
| – | O=c1ccn([C@@H]2O[C@H](COP(=O)(O)OP(=O)(O)OP(=O)(O)OP(=O)(O)OC[C@H]3O[C@@H](n4ccc(=O)[nH]c4=O)[C@H](O)[C@@H]3O)[C@@H](O)[C@H]2O)c(=O)[nH]1 [DS, diquafosol sodium, reference compound] | increased | increased | – | – |
| 6.72% | CC(C)C[C@H](NC(=O)CNC(=O)[C@H](Cc1c[nH]c2ccccc12)NC(=O)[C@H](CCC(N)=O)NC(=O)CNC(=O)[C@@H]1C[C@@H](O)CN1)C(=O)N[C@@H](C)C(=O)NCC(=O)N1CCC[C@H]1C(=O)N[C@@H](CCCCN)C(=O)O [YDE-014, HyP-Gly-Gln-Trp-Gly-Leu-Ala-Gly-Pro-Lys] (H-[Hyp]GQWGLAGPK-OH) | – | – | 31.15 ± 10.87% | – |
| 13.05% | CC(C)C[C@H](NC(=O)[C@@H](NC(=O)[C@H](CC(=O)O)NC(=O)[C@H](CCC(N)=O)NC(=O)CNC(=O)[C@@H]1C[C@@H](O)CN1)C(C)C)C(=O)N[C@@H](C)C(=O)NCC(=O)N1CCC[C@H]1C(=O)N[C@@H](CCCCN)C(=O)O [YDE-015, HyP-Gly-Gln-Asp-Val-Leu-Ala-Gly-Pro-Lys] (H-[Hyp]GQDVLAGPK-OH) | – | – | 15.95 ± 6.48% | – |
| 11.33% | CCC(C)[C@H](NC(=O)[C@H](CC(=O)O)NC(=O)[C@H](CCC(N)=O)NC(=O)CNC(=O)[C@@H]1C[C@@H](O)CN1)C(=O)N[C@@H](CC(C)C)C(=O)N[C@@H](C)C(=O)NCC(=O)N1CCC[C@H]1C(=O)N[C@@H](CCCCN)C(=O)O (stereo partly drawn) [YDE-016, HyP-Gly-Gln-Asp-Ile-Leu-Ala-Gly-Pro-Lys] (H-[Hyp]GQD[Ile(3ξ)]LAGPK-OH) | – | – | 24.57 ± 10.34% | – |
| 25.39% | CC(C)C[C@H](NC(=O)[C@H](C)NC(=O)[C@H](CC(=O)O)NC(=O)[C@H](CCC(N)=O)NC(=O)CNC(=O)[C@@H]1C[C@@H](O)CN1)C(=O)N[C@@H](C)C(=O)NCC(=O)N1CCC[C@H]1C(=O)N[C@@H](CCCCN)C(=O)O [YDE-018, HyP-Gly-Gln-Asp-Ala-Leu-Ala-Gly-Pro-Lys] (H-[Hyp]GQDALAGPK-OH) | – | – | 38.19 ± 10.96% | – |
| 30.66% | CC(C)C[C@H](NC(=O)[C@H](CO)NC(=O)[C@H](CC(=O)O)NC(=O)[C@H](CCC(N)=O)NC(=O)CNC(=O)[C@@H]1C[C@@H](O)CN1)C(=O)N[C@@H](C)C(=O)NCC(=O)N1CCC[C@H]1C(=O)N[C@@H](CCCCN)C(=O)O [YDE-023, HyP-Gly-Gln-Asp-Ser-Leu-Ala-Gly-Pro-Lys] (H-[Hyp]GQDSLAGPK-OH) | – | – | 26.51 ± 8.18% | – |
| 20.59% | CC(C)C[C@H](NC(=O)[C@@H](NC(=O)[C@H](CC(=O)O)NC(=O)[C@H](CCC(N)=O)NC(=O)CNC(=O)[C@@H]1C[C@@H](O)CN1)C(C)O)C(=O)N[C@@H](C)C(=O)NCC(=O)N1CCC[C@H]1C(=O)N[C@@H](CCCCN)C(=O)O (stereo partly drawn) [YDE-024, HyP-Gly-Gln-Asp-Thr-Leu-Ala-Gly-Pro-Lys] (H-[Hyp]GQD[Thr(3ξ)]LAGPK-OH) | – | – | 30.63 ± 10.41% | – |
| 10.15% | CC(C)C[C@H](NC(=O)CNC(=O)[C@H](CCO)NC(=O)[C@H](CCC(N)=O)NC(=O)CNC(=O)[C@@H]1C[C@@H](O)CN1)C(=O)N[C@@H](C)C(=O)NCC(=O)N1CCC[C@H]1C(=O)N[C@@H](CCCCN)C(=O)O [YDE-026, HyP-Gly-Gln-Ser(Homo)-Gly-Leu-Ala-Gly-Pro-Lys] (H-[Hyp]GQ[hSer]GLAGPK-OH) | – | – | 22.63 ± 11.23% | – |
| – | CC(C)C[C@H](NC(=O)CNC(=O)[C@H](CC(C)C)NC(=O)[C@H](CCC(N)=O)NC(=O)CNC(=O)[C@@H]1C[C@@H](O)CN1)C(=O)N[C@@H](C)C(=O)NCC(=O)N1CCC[C@H]1C(=O)N[C@@H](Cc1ccc(O)cc1)C(=O)O [YDE-029, HyP-Gly-Gln-Leu-Gly-Leu-Ala-Gly-Pro-Tyr] (H-[Hyp]GQLGLAGPY-OH) | – | did not show any significant changes | – | 63.45 ± 11.57% |
| – | CC(C)C[C@H](NC(=O)[C@@H]1CCCN1C(=O)CNC(=O)[C@H](C)NC(=O)[C@H](CC(C)C)NC(=O)CNC(=O)[C@H](CC(C)C)NC(=O)[C@H](CCC(N)=O)NC(=O)CNC(=O)[C@@H]1C[C@@H](O)CN1)C(=O)O [YDE-030, HyP-Gly-Gln-Leu-Gly-Leu-Ala-Gly-Pro-Leu] (H-[Hyp]GQLGLAGPL-OH) | – | did not show any significant changes | – | 30.60 ± 13.61% |
| – | CC(C)C[C@H](NC(=O)CNC(=O)[C@H](CC(C)C)NC(=O)[C@H](CCC(N)=O)NC(=O)CNC(=O)[C@@H]1C[C@@H](O)CN1)C(=O)N[C@@H](C)C(=O)NCC(=O)N1CCC[C@H]1C(=O)N[C@@H](CCC(N)=O)C(=O)O [YDE-032, HyP-Gly-Gln-Leu-Gly-Leu-Ala-Gly-Pro-Gln] (H-[Hyp]GQLGLAGPQ-OH) | – | did not show any significant changes | – | 58.90 ± 19.81% |
| – | CC(C)C[C@H](NC(=O)CNC(=O)[C@H](CC(C)C)NC(=O)[C@H](CCC(N)=O)NC(=O)CNC(=O)[C@@H]1C[C@@H](O)CN1)C(=O)N[C@@H](C)C(=O)NCC(=O)N1CCC[C@H]1C(=O)N[C@@H](CCCCO)C(=O)O [YDE-033, HyP-Gly-Gln-Leu-Gly-Leu-Ala-Gly-Pro-Nle(6-OH)] (H-[Hyp]GQLGLAGP[X1]-OH) | – | did not show any significant changes | – | 60.55 ± 21.22% |
| – | CC(C)C[C@H](NC(=O)CNC(=O)[C@H](CC(C)C)NC(=O)[C@H](CCC(N)=O)NC(=O)CNC(=O)[C@@H]1C[C@H](O)CN1)C(=O)N[C@@H](C)C(=O)NCC(=O)N1CCC[C@H]1C(=O)N[C@@H](CCCCN)C(=O)O [YDE-034, Hyp(2S, 4S)-Gly-Gln-Leu-Gly-Leu-Ala-Gly-Pro-Lys] (H-[cisHyp]GQLGLAGPK-OH) | – | did not show any significant changes | – | 32.17 ± 12.94% |
| – | CC(C)C[C@H](NC(=O)CNC(=O)[C@H](CC(C)C)NC(=O)[C@H](CCC(N)=O)NC(=O)CNC(=O)[C@@H]1CCC(=O)N1)C(=O)N[C@@H](C)C(=O)NCC(=O)N1CCC[C@H]1C(=O)N[C@@H](CCCCN)C(=O)O [YDE-036, (5-oxo)Pro-Gly-Gln-Leu-Gly-Leu-Ala-Gly-Pro-Lys] ([pGlu]GQLGLAGPK-OH) | – | did not show any significant changes | – | 57.87 ± 22.91% |
